{
  "source": "patent US4260760A",
  "about": "“Diaryl-aliphatic-amino-aliphatic-piperazines” (priority 1979, dated 1981)",
  "test_system": "mice",
  "experiment": "Acute Oral LD50 mice (Table I)",
  "assay_type": "in vivo",
  "source_text": "The low toxicity of these compounds makes them especially attractive for use where contact with skin surfaces or possible ingestion renders the use of irritating or toxic materials inadvisable.\n______________________________________",
  "note": "Where a name gives a salt, the structure may show the parent alone.",
  "data": [
    {"compound": "Cc1ccc(C(C)(C)C)cc1CCCC(CCCc1cc(C(C)(C)C)ccc1C)NCCCNCCCN", "note": "[1-[1,7-di-(2-methyl-5-t-butylphenyl)-hydrochloride]", "values": [
      {"measurement": "Acute Oral LD50 mice", "value": 1650, "unit": "mg/kg"}
    ]}
  ]
}
